The test addresses Bcl-2 (Homo sapiens, UniProt P10415). Briefly: Homogeneous HTS assay for inhibitors of the Bcl-2 : Bak (72-87) BH3 domain interaction, fluorescence polarisation (2D-FIDA). It is filed as binding. The following applies: fluorescence polarisation, fluorescent labelled Bak BH3 domain derived peptide; read-out: IC50 [μM] Bcl-2. The source says: FIG. 1 is a schematic drawing of the Bcl-2: Bak (72-87) interaction assay based on fluorescence polarisation.
The homogeneous HTS assay for inhibitors of the Bcl-2 is shown schematically in FIG. 1. BH3 domain interaction is based on fluorescence polarisation. The inherent rotational diffusion of the Bak BH3 domain derived fluorescent labelled peptide decreases upon binding to Bc1-2. This shift in rotational diffusion is quantitated using the two-dimensional fluorescence intensity distribution analysis (2D-FIDA; Kask et al. 2000, Biophys. J. 78: 1703-1713).
Two different BH3 domain derived peptide ligands were synthesised and subsequently fluorescently labelled: • a 16mer peptide covering amino acids 72-87 of the Bak protein; this peptide had been used by Wang and co-workers and Holinger and coworkers in their Bcl-2 protein binding studies; Wang and co-workers reported an equilibrium binding constant KD of ˜0.2 μM to Bcl-2 protein; • peptide sequence: GQVGRQLAIIGDDINR—N (Wang et al. 2002, Proc. Natl. Acad. Sci. U.S.A. 97: 7124-7129; Holinger et al. 1999, J. Biol. Chem. 274: 13298-13304).

Sequence of Bcl-2 (P10415 whole entry, species assumed, the tested form may be a part): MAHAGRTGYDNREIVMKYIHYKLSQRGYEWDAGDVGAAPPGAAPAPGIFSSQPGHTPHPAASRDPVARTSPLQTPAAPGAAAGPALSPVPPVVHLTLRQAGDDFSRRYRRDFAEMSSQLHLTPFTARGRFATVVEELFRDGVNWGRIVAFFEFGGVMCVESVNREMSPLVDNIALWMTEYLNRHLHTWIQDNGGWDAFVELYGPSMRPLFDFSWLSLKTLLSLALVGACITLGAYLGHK

With `N=c1n(CCCOc2ccc(F)cc2)c2ccccc2n1Cc1ccc(CN2CCN(Cc3ccc(Cl)cc3)CC2)cc1` [Compound 39, 1-{4-[4-(4-Chloro-benzyl)-piperazin-1-ylmethyl]-benzyl}-3-[3-(4-fluoro-phenoxy)-propyl]-1,3-dihydro-benzoimidazol-2-ylideneamine], the IC50 fell in the range of 11 to 100 µM. For `N=c1n(CCCOc2ccc(F)cc2)c2ccccc2n1Cc1ccc(CNCC(=O)Nc2cccc(Cl)c2)cc1` [Compound 50, N-(3-Chloro-phenyl)-2-(4-{3-[3-(4-fluoro-phenoxy)-propyl]-2-imino-2,3-dihydro-benzoimidazol-1-ylmethyl}-benzylamino)-acetamide] the value was 11 to 100 µM.

In the case of `N=c1n(CCCOc2ccc(F)cc2)c2ccccc2n1Cc1ccc(CNCC(=O)Nc2ccccc2Cl)cc1` [Compound 43, N-(2-Chloro-phenyl)-2-(4-{3-[3-(4-fluoro-phenoxy)-propyl]-2-imino-2,3-dihydro-benzoimidazol-1-ylmethyl}-benzylamino)-acetamide], the IC50 is 11 to 100 µM. For the molecule `CC1(C)CCC(c2ccc(Cl)cc2)=C(CN2CCN(c3cccc(Cn4c(=N)n(CCCOc5ccc(F)cc5)c5ccccc54)c3)CC2)C1` [Compound 31, 1-(3-{4-[2-(4-Chloro-phenyl)-5,5-dimethyl-cyclohex-1-enylmethyl]-piperazin-1-yl}-benzyl)-3-[3-(4-fluoro-phenoxy)-propyl]-1,3-dihydro-benzoimidazol-2-ylideneamine], the IC50 is < 10 µM. For `N=c1n(Cc2cccc(Br)c2)c2ccccc2n1CC(O)COc1ccc(F)cc1` (centres unmarked) [Compound 76, 1-[3-(3-Bromo-benzyl)-2-imino-2,3-dihydro-benzoimidazol-1-yl]-3-(4-fluoro-phenoxy)-propan-2-ol] the value was 11 to 100 µM. For `N=c1n(Cc2cccc(N3CCN(Cc4ccccc4-c4ccccc4)CC3)c2)c2ccccc2n1CC(O)COc1ccc(F)cc1` (centres unmarked) [Compound 82, 1-{3-[3-(4-Biphenyl-2-ylmethyl-piperazin-1-yl)-benzyl]-2-imino-2,3-dihydro-benzoimidazol-1-yl}-3-(4-fluoro-phenoxy)-propan-2-ol] the value was < 10 µM; for `N=c1n(CCCOc2ccc(F)cc2)c2ccccc2n1Cc1ccc(CN2CCN(c3ccc(Cl)cc3)CC2)cc1` [Compound 42, 1-{4-[4-(4-Chloro-phenyl)-piperazin-1-ylmethyl]-benzyl}-3-[3-(4-fluoro-phenoxy)-propyl]-1,3-dihydro-benzoimidazol-2-ylideneamine], 11 to 100 µM. Consider `N=c1n(CCCOc2ccc(F)cc2)c2ccccc2n1Cc1ccc(N2CCN(Cc3ccc(Cl)cc3)CC2)nc1` [Compound 55, 1-{6-[4-(4-Chloro-benzyl)-piperazin-1-yl]-pyridin-3-ylmethyl}-3-[3-(4-fluoro-phenoxy)-propyl]-1,3-dihydro-benzoimidazol-2-ylideneamine], for which the IC50 lay in the range of 11 to 100 µM. In the case of `N=c1n(CCCOc2cccc(C(=O)O)c2)c2ccccc2n1Cc1cccc(Br)c1` [Compound 84, 3-{3-[3-(3-Bromo-benzyl)-2-imino-2,3-dihydro-benzoimidazol-1-yl]-propoxy}-benzoic acid], the IC50 is 11 to 100 µM. On to `N=c1n(CCCOc2ccc(F)cc2)c2ccccc2n1Cc1ccc(N2CCN(Cc3ccccc3-c3ccccc3)CC2)cc1` [Compound 25, 1-[4-(4-Biphenyl-2-ylmethyl-piperazin-1-yl)-benzyl]-3-[3-(4-fluoro-phenoxy)-propyl]-1,3-dihydro-benzoimidazol-2-ylideneamine], for which the half-inhibitory concentration (IC50) was < 10 µM.

With `N=c1n(CCCOc2ccc(F)cc2)c2ccccc2n1Cc1ccc(CN2CCN(Cc3cccc(Cl)c3)CC2)cc1` [Compound 47, 1-{4-[4-(3-Chloro-benzyl)-piperazin-1-ylmethyl]-benzyl}-3-[3-(4-fluoro-phenoxy)-propyl]-1,3-dihydro-benzoimidazol-2-ylideneamine], the half-maximal inhibitory concentration (IC50) is < 10 µM.

(Values after patent US8759520B2, “Compounds for treating cancer” (Boehringer Ingelheim International GmbH, priority 2008, dated 2014).)
